Source: publication PMC8355692, “Antimelanoma activities of chimeric thiazole–androstenone derivatives” (Royal Society Open Science, 2021)

Tests used:
Assay type in all cases: cell-based
HFF-1 cell line = assay: Toxicity for normal human foreskin fibroblast cell line; conditions: normal human foreskin fibroblast HFF-1; for IC50: read-out: IC50 against HFF1 cell line
Source text: To assess the potential use of lead compounds as anti-melanoma agents, we tested their toxicity for the normal human foreskin fibroblast (HFF-1) cell line taking into consideration that MM is usually surrounded by the cells of this kind. The effects of some of the potent compounds on this cell line were very encouraging (table 4).

SK-MEL-28 = assay: NCI DTP 60 cell line five-concentration test, melanoma panel; conditions: for CC50: SK-MEL-28, read-out: LC50 (50% lethal concentration)
Description: (§1) In our effort to develop new methodologies to synthesize bioactive compounds [11–14], we have synthesized a number of thiazole and thiazolo-androstenone derivatives. We submitted 50 of the synthesized thiazole–androstenone derivatives to the National Cancer Institute (NCI) Development Therapeutics Program (DTP) to test against 60 cancer cell lines (https://dtp.cancer.gov/). These compounds were tested for cytotoxicity at a single dose of 10 µM. […] Eight of these chimeric compounds (figure 2) were selected for further testing at five different concentrations to determine 50% growth inhibition (GI50), total growth inhibition (TGI) and 50% lethal concentration (LC50) values. […] Overall, amino-thiazole derivatives (table 1, 1–7) were more toxic to melanoma cell lines than phenyl thiazole derivatives (8). Fluoro and oxy (hydroxy and methoxy) derivatives were the potent growth inhibitors of the tested cancer cell lines. LOX IMVI cell line was the most susceptible among all the melanoma cell lines used against the tested compounds (table 1). […] Phenyl ethyl derivative (1) inhibited the growth of all the cell lines except SK-MEL-2. […] 2,4-Dimethyl substituted derivative (7) is a potent growth inhibitor of all the tested cell lines of the melanoma panel.

MDA-MB-435 = assay: as above; conditions: for CC50 / GI50: Homo sapiens; for CC50: MDA-MB-435, read-out: LC50 (50% lethal concentration); for GI50 / TGI (total growth inhibition): MDA-MB-435 melanoma cell line
Description: as §1

LOX IMVI = assay: as above; conditions: for LC50 (50% lethal concentration) / GI50: Homo sapiens; for LC50 (50% lethal concentration): LOX IMVI, read-out: LC50 (50% lethal concentration); for GI50 / TGI (total growth inhibition): LOX IMVI melanoma cell line
Description: as §1

M14 = assay: as above; conditions: for CC50: M14, read-out: LC50 (50% lethal concentration)
Description: as §1

UACC-257 = assay: as above; conditions: for CC50 / GI50: Homo sapiens; for CC50: UACC-257, read-out: LC50 (50% lethal concentration); for GI50 / TGI (total growth inhibition): UACC-257 melanoma cell line
Description: as §1

UACC-62 = assay: as above; conditions: for LC50 (50% lethal concentration): UACC-62, read-out: LC50 (50% lethal concentration)
Description: as §1

SK-MEL-5 = assay: as above; conditions: for CC50 / GI50: Homo sapiens; for CC50: SK-MEL-5, read-out: LC50 (50% lethal concentration); for GI50 / TGI (total growth inhibition): SK-MEL-5 melanoma cell line
Description: as §1

SK-MEL-2 = assay: as above; conditions: for LC50 (50% lethal concentration) / GI50: Homo sapiens; for LC50 (50% lethal concentration): SK-MEL-2, read-out: LC50 (50% lethal concentration); for GI50 / TGI (total growth inhibition): SK-MEL-2 melanoma cell line
Description: as §1

MALME-3M = assay: as above; conditions: for CC50 / GI50: Homo sapiens; for CC50: Malme-3M, read-out: LC50 (50% lethal concentration); for GI50 / TGI (total growth inhibition): MALME-3M melanoma cell line
Description: as §1

SK-MEL-28 cell line = assay: Annexin V flow cytometry apoptosis assay
Description: After determining the selective toxicity of potent molecules, we determined their mode of action against the melanoma cell line. Apoptosis or programmed cell death is a physiological process to remove unwanted or damaged mammalian cells. We detected apoptosis mode of cell death by our potent compounds using flow cytometry-based Annexin V assay. Compound 3 caused 23% apoptosis at 6 µM and 54% apoptosis at 12 µM (figure 3). 3-Fluorophenyl derivative (5) was a very potent apoptosis-inducing agent that caused 100% cell death at 12 µM concentration. Dacarbazine, the positive control, caused 22% apoptotic cell death at 200 µM concentration.
Figure 3. Apoptosis measurements using Annexin V flow cytometry assay of compounds 3 and 5 against SK-MEL-28 cell line at 6 and 12 µM concentrations. DMSO and dacarbazine (Daca) are negative and positive controls, respectively. Mean ± s.e.m., n = 3 per group.

heme oxygenase-1 (HO1) = assay: HO1 immunocytochemistry combined with TUNEL (oxidative injury); conditions: melanoma cells, 24 h; for HO1 staining in TUNEL-positive cells (oxidative injury): 5 or 10 µM; for HO1 mean intensity (oxidative injury): 10 µM
Source text: (§2) The elevation was dose-dependent.
(§3) Figure 4. […] (c) Representative images. […] Mean ± s.e.m., n = 4 per group.
(§4) Figure 5. […] (a) Representative images of TUNEL colocalized or not colocalized with each of the three protein markers used in this study. […] Mean ± s.e.m., n = 4 per group.
(§5) Thus, to determine the mechanism of action of our compounds on melanoma cells in vitro, we applied the fluorescent TUNEL assay combined with quantitative ICC for three markers: HO1 for oxidative cell injury, CAD for caspase-mediated apoptosis and EndoG for caspase-independent apoptosis. […] However, none of the compounds or dacarbazine induced apoptotic endonucleases. This is not surprising because apoptotic endonucleases are commonly present in the cell in sufficient amounts to be able to destroy DNA upon cell death without induction (which most likely would not be possible in a dead cell).

[1] = system: caspase-activated DNase (CAD); assay: CAD immunocytochemistry combined with TUNEL (caspase-mediated apoptosis); conditions: melanoma cells, 5 or 10 µM, 24 h
Source text: as §2, §3, §4, §5

endonuclease G (EndoG) = assay: EndoG immunocytochemistry combined with TUNEL (caspase-independent apoptosis); conditions: melanoma cells, 5 or 10 µM, 24 h
Source text: as §2, §3, §4, §5

[2] = Homo sapiens, SK-MEL-28, SK-MEL-28 melanoma cell line
[3] = Homo sapiens, M14, M14 melanoma cell line
[4] = Homo sapiens, UACC-62, UACC-62 melanoma cell line

Structure (SMILES)	IC50 (HFF-1 cell line) [µM]	GI50 (SK-MEL-28; [2]) [µM]	CC50 (SK-MEL-28; Homo sapiens) [µM]	TGI (total growth inhibition) (SK-MEL-28; SK-MEL-28 melanoma cell line) [µM]	CC50 (MDA-MB-435) [µM]	GI50 (MDA-MB-435) [µM]	TGI (total growth inhibition) (MDA-MB-435) [µM]	LC50 (50% lethal concentration) (LOX IMVI) [µM]	GI50 (LOX IMVI) [µM]	TGI (total growth inhibition) (LOX IMVI) [µM]	GI50 (M14; [3]) [µM]	CC50 (M14; Homo sapiens) [µM]	TGI (total growth inhibition) (M14; M14 melanoma cell line) [µM]	CC50 (UACC-257) [µM]	GI50 (UACC-257) [µM]	GI50 (UACC-62; [4]) [µM]	LC50 (50% lethal concentration) (UACC-62; Homo sapiens) [µM]	TGI (total growth inhibition) (UACC-62; UACC-62 melanoma cell line) [µM]	CC50 (SK-MEL-5) [µM]	GI50 (SK-MEL-5) [µM]	also measured
C[C@]12CCc3nc(Nc4ccccc4)sc3C1=CC[C@@H]1[C@@H]2CC[C@]2(C)C(=O)CC[C@@H]12 [Compound 2]	21	20.5	> 100	>100	> 100	3.49	>100	48.1	3.22	10.8	< 10	> 100	50.9	> 100	23.8	< 10	89.7	29.6	66.2	10.2	GI50 (M14; M14 melanoma cell line): 7.88 µM; TGI (total growth inhibition) (UACC-257): 94.5 µM; GI50 (UACC-62; UACC-62 melanoma cell line): 9.54 µM; TGI (total growth inhibition) (SK-MEL-5): 26.0 µM; LC50 (50% lethal concentration) (SK-MEL-2): > 100 µM; GI50 (SK-MEL-2): 17.1 µM; TGI (total growth inhibition) (SK-MEL-2): 60.8 µM; CC50 (MALME-3M): > 100 µM; GI50 (MALME-3M): 21.2 µM; TGI (total growth inhibition) (MALME-3M): >100 µM
C[C@]12CCc3nc(Nc4ccc(OC(F)(F)F)cc4)sc3C1=CC[C@@H]1[C@@H]2CC[C@]2(C)C(=O)CC[C@@H]12 [Compound 3]	> 100	≥ 1.32	49.2	7.98	44.2	2.72	10.1	5.82	1.74	3.18	3.29	46.6	8.72	> 100	4.89	3.03	> 100	10.3	41.4	2.62	apoptosis (SK-MEL-28 cell line; SK-MEL-28, 6 µM): 23%; apoptosis (SK-MEL-28 cell line; SK-MEL-28, 12 µM): 54%; toxicity against HFF1 cells (in words) (HFF-1 cell line): did not show any notable toxicity; HO1 staining in TUNEL-positive cells (oxidative injury) (heme oxygenase-1 (HO1)): strongly induced oxidative injury; CAD mean intensity [1]: No significant induction; colocalization of CAD with TUNEL (caspase-mediated apoptosis) [1]: induced the colocalization of CAD with TUNEL; EndoG mean intensity (endonuclease G (EndoG)): No significant induction; GI50 (SK-MEL-28; SK-MEL-28 melanoma cell line): 1.88 µM; TGI (total growth inhibition) (UACC-257): 28.8 µM; TGI (total growth inhibition) (SK-MEL-5): 7.41 µM; LC50 (50% lethal concentration) (SK-MEL-2): 55.6 µM; GI50 (SK-MEL-2): 3 µM; TGI (total growth inhibition) (SK-MEL-2): 11.6 µM; CC50 (MALME-3M): 84.5 µM; GI50 (MALME-3M): 3.45 µM; TGI (total growth inhibition) (MALME-3M): 16.8 µM
C[C@]12CCc3nc(Nc4cccc(O)c4)sc3C1=CC[C@@H]1[C@@H]2CC[C@]2(C)C(=O)CC[C@@H]12 [Compound 4]	8.6	≥ 1.32	> 100	3.31	> 100	2.53	>100	5.94	1.67	3.15	2.97	> 100	>100	> 100	3.69	2.08	> 100	5.25	> 100	5.7	HO1 mean intensity (oxidative injury) (heme oxygenase-1 (HO1)): induced oxidative injury; CAD mean intensity [1]: No significant induction; colocalization of CAD with TUNEL (caspase-mediated apoptosis) [1]: induced the colocalization of CAD with TUNEL; EndoG mean intensity (endonuclease G (EndoG)): No significant induction; GI50 (SK-MEL-28; SK-MEL-28 melanoma cell line): 1.32 µM; TGI (total growth inhibition) (UACC-257): >100 µM; TGI (total growth inhibition) (SK-MEL-5): >100 µM; LC50 (50% lethal concentration) (SK-MEL-2): 91.4 µM; GI50 (SK-MEL-2): 2.86 µM; TGI (total growth inhibition) (SK-MEL-2): 9.99 µM; CC50 (MALME-3M): > 100 µM; GI50 (MALME-3M): 1.49 µM; TGI (total growth inhibition) (MALME-3M): 3.01 µM
C[C@]12CCc3nc(Nc4cccc(F)c4)sc3C1=CC[C@@H]1[C@@H]2CC[C@]2(C)C(=O)CC[C@@H]12 [Compound 5]	5.9	≥ 1.32	19.9	4.27	> 100	2.74	13.1	6.16	1.67	3.21	2.36	81.4	7.23	> 100	5.47	1.54	6.31	3.12	9.24	2.02	apoptosis (SK-MEL-28 cell line; SK-MEL-28, 12 µM): 100%; toxicity against HFF1 cells (in words) (HFF-1 cell line): somewhat toxic; HO1 mean intensity (oxidative injury) (heme oxygenase-1 (HO1)): induced oxidative injury; HO1 staining in TUNEL-positive cells (oxidative injury) (heme oxygenase-1 (HO1)): strongly induced oxidative injury; CAD mean intensity [1]: No significant induction; colocalization of CAD with TUNEL (caspase-mediated apoptosis) [1]: induced the colocalization of CAD with TUNEL; EndoG mean intensity (endonuclease G (EndoG)): No significant induction; GI50 (SK-MEL-28; SK-MEL-28 melanoma cell line): 1.52 µM; TGI (total growth inhibition) (UACC-257): 64 µM; TGI (total growth inhibition) (SK-MEL-5): 4.32 µM; LC50 (50% lethal concentration) (SK-MEL-2): 26.7 µM; GI50 (SK-MEL-2): 1.86 µM; TGI (total growth inhibition) (SK-MEL-2): 5.19 µM; CC50 (MALME-3M): 26.7 µM; GI50 (MALME-3M): 1.94 µM; TGI (total growth inhibition) (MALME-3M): 5.04 µM
Cc1ccc(Nc2nc3c(s2)C2=CC[C@@H]4[C@H](CC[C@]5(C)C(=O)CC[C@@H]45)[C@@]2(C)CC3)c(C)c1 [Compound 7]	40	2.31	> 100	6.08	> 100	3.02	>100	5.96	1.64	3.13	1.85	> 100	3.79	> 100	3.7	1.72	9.02	3.94	7.47	1.86	TGI (total growth inhibition) (SK-MEL-5): 3.73 µM; LC50 (50% lethal concentration) (SK-MEL-2): 22.7 µM; GI50 (SK-MEL-2): 2.19 µM; TGI (total growth inhibition) (SK-MEL-2): 4.74 µM; CC50 (MALME-3M): > 100 µM; GI50 (MALME-3M): 1.99 µM; TGI (total growth inhibition) (MALME-3M): 5.55 µM
